Source: PMC10458253, “Unraveling the In Vitro Toxicity Profile of Psychedelic 2C Phenethylamines and Their N-Benzylphenethylamine (NBOMe) Analogues” (Pharmaceuticals, 2023)

How the values were obtained:
[1] = target: T1, hMAO-B (Homo sapiens, UniProt P27338); test: biochemical; settings: read-out: % inhibition at 10 µM hMAO-B, kynuramine substrate
T1 construct: purchased Sigma Aldrich; host or cells: insect cells (BTI-TN-5B1-4), recombinant baculovirus
T1 sequence (P27338 1-520): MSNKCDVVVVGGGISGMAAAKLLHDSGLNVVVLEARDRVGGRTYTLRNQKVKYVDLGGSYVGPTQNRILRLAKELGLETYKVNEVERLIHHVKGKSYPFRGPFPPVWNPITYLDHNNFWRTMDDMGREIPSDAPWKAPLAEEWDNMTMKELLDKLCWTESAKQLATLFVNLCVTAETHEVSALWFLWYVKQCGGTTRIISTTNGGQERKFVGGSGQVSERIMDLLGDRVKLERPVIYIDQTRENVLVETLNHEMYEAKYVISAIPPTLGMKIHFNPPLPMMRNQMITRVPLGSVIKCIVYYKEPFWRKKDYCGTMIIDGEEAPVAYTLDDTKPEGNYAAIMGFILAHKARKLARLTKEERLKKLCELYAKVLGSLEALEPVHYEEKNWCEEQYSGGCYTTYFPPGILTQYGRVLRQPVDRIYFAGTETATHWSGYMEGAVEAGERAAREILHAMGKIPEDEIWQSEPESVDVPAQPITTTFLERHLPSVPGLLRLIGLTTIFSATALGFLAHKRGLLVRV
Procedure: The hMAO inhibitory activities were assessed in microsomal MAO isoforms, prepared from insect cells (BTI-TN-5B1-4) infected with recombinant baculovirus containing cDNA inserts for hMAO-A or hMAO-B, by measuring the enzymatic conversion rates of kynuramine into 4-hydroxyquinoline. […] All assays were performed in sodium phosphate buffer solution 50 mM pH 7.4.
The percentages of MAO inhibition of each compound were determined from three independent experiments performed in triplicate.

[2] = system: HepG2 cells; test: Effect of CYP inhibitors on drug cytotoxicity (resazurin reduction), HepG2; format: cell-based; settings: HepG2, 24 h, drug concentrations as given in the source; for change of resazurin reduction with ketoconazole vs drug alone: 1 μM ketoconazole; for change of resazurin reduction with ABT vs drug alone: 1000 μM ABT; for change of resazurin reduction with quinidine vs drug alone: 10 μM quinidine
Procedure: Analogously to the studies performed in the neuronal model, the impact of the CYP-mediated metabolism on the cytotoxicity of the tested drugs was also evaluated, in HepG2 cells, 24 h after exposure to the drugs in the presence or absence of different CYP inhibitors: 1000 μM ABT, 10 μM quinidine or 1 μM ketoconazole.
(§1) CYP inhibition assay was used to evaluate the drugs’ potential to inhibit drug-metabolizing enzymes. Accordingly, SH-SY5Y and HepG2 cells were seeded in 96-well cell culture plates and pre-incubated with 1000 µM ABT—a non-isoform specific CYP450 inhibitor, 10 µM quinidine—a CYP2D6 inhibitor or 1 µM ketoconazole—a CYP3A4 inhibitor. After 1 h, the drugs (0–500 µM) were co-incubated with the inhibitors for 24 h, at 37 °C, in a 5% CO2–95% air atmosphere. The drugs’ cytotoxicity was then assessed through the neutral red uptake assay for differentiated SH-SY5Y cells, and through the resazurin reduction assay for HepG2 cells, and the results were expressed as percentage of control cells. At least four independent experiments were performed, in triplicate.

[3] = system: differentiated SH-SY5Y cells; test: Effect of CYP inhibitors on drug cytotoxicity (neutral red uptake), differentiated SH-SY5Y; format: cell-based; settings: 24 h, drug concentrations as given in the source; for change of neutral red uptake with ketoconazole vs drug alone: 10 μM ketoconazole (CYP3A4 inhibitor); for change of neutral red uptake with quinidine vs drug alone: 10 μM quinidine (CYP2D6 inhibitor); for change of neutral red uptake with ABT vs drug alone: 1000 μM ABT (non-selective CYP inhibitor)
Procedure: Differentiated SH-SY5Y cells were incubated with the drugs in the presence or absence of different CYP inhibitors: 1000 μM ABT, a non-selective CYP inhibitor, 10 μM quinidine, a specific CYP2D6 inhibitor, or 10 μM ketoconazole, a specific CYP3A4 inhibitor.
as §1

[4] = system: HepG2 cells; test: Neutral red uptake cytotoxicity assay, HepG2; format: cell-based; settings: HepG2, 24 h; for Top (maximal effect): maximum cell death of fitted curve; for EC50: Homo sapiens, cell death curves 0–2000 µM, read-out: EC50 (half-maximum-effect concentrations)
Procedure: (§2) HepG2 cells were acquired from the American Type Culture Collection (Manassas, VA, USA). Cells were cultured in 75 cm^2 flasks using DMEM—high glucose supplemented with a 10% heat inactivated FBS and 1% penicillin/streptomycin mixture, and maintained in a 5% CO2–95% air atmosphere, at 37 °C, until 80% confluence. Cells were routinely subcultured using trypsin-EDTA and, to avoid phenotypic alterations, used between passages 16 and 22. In all experiments, the cells were seeded at a density of 250,000 cells/cm^2 and used 24 h after seeding.
(§3) Neutral red uptake and resazurin reduction assays were performed after exposure of differentiated SH-SY5Y and HepG2 cells to the drugs under study. To obtain a concentration–response curve, a broad concentration range (0–2000 µM) was investigated, and cytotoxicity was evaluated 24 h after exposure in 96-well cell culture plates. As previously described, neutral red uptake assay is based on the incorporation of neutral red dye into the lysosomes of viable cells and the amount of dye incorporated represents the cells’ lysosomal functionality, and resazurin reduction assay is based on the irreversible reduction of resazurin dye to the fluorescent resorufin product by metabolically active cells.
(§4) Briefly, 24 h after being exposed to different concentrations of the compounds, differentiated SH-SY5Y cells were incubated with either neutral red (50 µg/mL) or resazurin (10 µg/mL) solutions for 90 min, at 37 °C, in a 5% CO2–95% air atmosphere. For HepG2 cells, 24 h after the exposure to the tested drugs, the cells were incubated with either neutral red (50 µg/mL) or resazurin (10 µg/mL) solutions for 45 and 60 min, respectively, at 37 °C, in a 5% CO2–95% air atmosphere.
(§5) In the neutral red uptake assay, at the end of the incubation period, the cell culture medium was removed and a solution of absolute ethyl alcohol/distilled water (1:1) with 5% acetic acid was added to extract the dye absorbed only by the viable cells. The absorbance was measured at 540 nm in a multi-well plate reader (PowerWaveX BioTek Instruments, Winooski, VT, USA). In the resazurin assay, at the end of the incubation period, the fluorescence was measured at 530 nm excitation and 590 nm emission wavelengths in a multi-well plate reader (PowerWaveX BioTek Instruments, Winooski, VT, USA).
(§6) The results were expressed as a percentage of control cells. At least four independent experiments were performed, in triplicate. For differentiated SH-SY5Y cells, the neutral red uptake assay was identified as the most sensitive assay and, therefore, used for the subsequent experiments. On the other hand, for HepG2 cells, the resazurin reduction assay was identified as the most sensitive assay and, therefore, used for the subsequent experiments.

[5] = system: HepG2 cells; test: Resazurin reduction cytotoxicity assay, HepG2; format: cell-based; settings: HepG2, 24 h; for Top (maximal effect): maximum cell death of fitted curve; for EC50: Homo sapiens, cell death curves 0–2000 µM, read-out: EC50 (half-maximum-effect concentrations)
Procedure: as §2, §3, §4, §5, §6

Row | SMILES | inhibition at 10 µM [1] | change of resazurin reduction with ketoconazole vs drug alone [2] | change of resazurin reduction with ABT vs drug alone [2] | change of neutral red uptake with ketoconazole vs drug alone [3] | change of neutral red uptake with quinidine vs drug alone [3] | Bottom (baseline) [4] | Hill Slope [4] | Top (maximal effect) [4] | EC50 [4] | Bottom (baseline) [5] | Hill Slope [5] | Top (maximal effect) [5] | EC50 [5] | change of resazurin reduction with quinidine vs drug alone [2] | change of neutral red uptake with ABT vs drug alone [3] | cytotoxicity (in words) ([4]; 0–2000 µM) | cytotoxicity (in words) ([5]; 0–2000 µM)
1 | COc1cc(CCN)c(OC)cc1Br [2C-B, 4-Bromo-2,5-dimethoxy-β-phenethylamine] | 27.2% | significant decrease in the cells’ metabolic capacity | small but significant decrease in resazurin reduction | small but significant decrease in neutral red uptake | significant decrease in the neutral red uptake | 5.433 | 5.413 | 95.01 | 257 µM | 1.072 | 3.731 | 89.29 | 206 µM | – | – | – | –
2 | COc1cc([N+](=O)[O-])c(OC)cc1CCN [2C-N, 2,5-dimethoxy-4-nitrophenethylamine] | 18% | significant increase in the metabolic capacity of cells | – | – | significant decrease in the neutral red uptake | 7.328 | 4.340 | ≈100 | 960 µM | 0.2545 | 2.334 | ≈100 | 834 µM | significant increase in the metabolic capacity of cells | significant increase in neutral red uptake | – | –
3 | COc1cc(CCNCc2ccccc2OC)c(OC)cc1Br [25B-NBOMe, 4-Bromo-2,5-dimethoxy-N-(2-methoxybenzyl)-β-phenethylamine] | 33.9% | significant decrease in the cells’ metabolic capacity | small but significant decrease in resazurin reduction | – | significant decrease in the neutral red uptake | 4.279 | 2.442 | ≈100 | 34.7 µM | 4.552 | 3.079 | 89.49 | 32.8 µM | – | – | – | –
4 | COc1cc([N+](=O)[O-])c(OC)cc1CCNCc1ccccc1OC [25N-NBOMe, 4-Nitro-2-dimethoxy-N-(2-methoxybenzyl)-β-phenethylamine] | 25.5% | no significant changes in resazurin reduction | small but significant decrease in resazurin reduction | small but significant decrease in neutral red uptake | significant decrease in the neutral red uptake | 7.254 | 6.518 | 94.13 | 115 µM | 3.464 | 5.089 | 87.26 | 99.7 µM | no significant changes in resazurin reduction | significant decrease in neutral red uptake | – | –
5 | COc1cc(CCN)cc(OC)c1OC.Cl [Mescaline, 3,4,5-Trimethoxyphenethylamine hydrochloride] | 21.2% | No significant changes | No significant changes | small but significant decrease in neutral red uptake | significant decrease in the neutral red uptake | – | – | – | – | – | – | – | – | No significant changes | – | not causing a significant cytotoxicity | not causing a significant cytotoxicity
6 | COc1ccccc1CNCCc1cc(OC)c(OC)c(OC)c1 [Mescaline-NBOMe, 3,4,5-Trimethoxy-N-(2-methoxybenzyl)-β-phenethylamine] | 89% | no significant changes in resazurin reduction | small but significant decrease in resazurin reduction | small but significant decrease in neutral red uptake | significant decrease in the neutral red uptake | 2.853 | 3.666 | 98.25 | 476 µM | −0.3754 | 3.411 | 87.43 | 426 µM | no significant changes in resazurin reduction | significant decrease in neutral red uptake | – | –
